Laboratory results published in the supplement of paper PMC11061612.

What was measured:
Assay in all cases: combination Emax (second highest fraction inhibited in the dose matrix, 72 h); higher = more inhibition; extreme values may be limits of the assay
[1] = system: MDA-MB-361 (Breast Carcinoma)
How it was run: (§1)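 After 24 hours at 37°C and 5% CO2 in 1536-well plates, cells in DMEM/F12 or RPMI plus 10% FBS received two-drug dose matrices for 72 hours. Viability came from CellTiter-Glo 2.0 luminescence and was scaled as inhibition, anchored at 0 by vehicle wells and at 1 by blank wells. Combination Emax is taken as the second-highest inhibition in the matrix, and Bliss excess as the observed combination effect less EA + EB − EA·EB, with EA and EB the single-agent effects.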

[2] = system: HuP-T4 (Pancreatic Carcinoma)
How it was run: as §1

[3] = system: TCCSUP (Bladder Carcinoma)
How it was run: as §1

[4] = system: TE-9 (Esophageal Squamous Cell Carcinoma)
How it was run: as §1

[5] = system: DEL (T-Cell Non-Hodgkin's Lymphoma)
How it was run: as §1

AGS (Gastric Carcinoma) = system: AGS (Gastric Carcinoma)
How it was run: as §1

[6] = system: NCI-H82 (Small Cell Lung Carcinoma)
How it was run: as §1

[7] = system: NCI-H2085 (Non-Small Cell Lung Carcinoma)
How it was run: as §1

[8] = system: SNU-5 (Gastric Carcinoma)
How it was run: as §1

[9] = system: LB831-BLC (Bladder Carcinoma)
How it was run: as §1

ES4 (Ewing's Sarcoma) = system: ES4 (Ewing's Sarcoma)
How it was run: as §1

[10] = system: UM-UC-3 (Bladder Carcinoma)
How it was run: as §1

[11] = system: Daoy (Other Solid Carcinomas)
How it was run: as §1

[12] = system: RC-K8 (B-Cell Non-Hodgkin's Lymphoma)
How it was run: as §1

[13] = system: HT-1376 (Bladder Carcinoma)
How it was run: as §1

[14] = system: HCC-78 (Lung Adenocarcinoma)
How it was run: as §1

[15] = system: CCRF-CEM (T-Lymphoblastic Leukemia)
How it was run: as §1

[16] = system: MFE-296 (Endometrial Carcinoma)
How it was run: as §1

[17] = system: HO-1-N-1 (Oral Cavity Carcinoma)
How it was run: as §1

[18] = system: CaR-1 (Colorectal Carcinoma)
How it was run: as §1

Structure (SMILES) | combination Emax [1] | combination Emax [2] | combination Emax [3] | combination Emax [4] | combination Emax [5] | combination Emax (AGS (Gastric Carcinoma)) | combination Emax [6] | combination Emax [7] | combination Emax [8] | combination Emax [9] | combination Emax (ES4 (Ewing's Sarcoma)) | combination Emax [10] | combination Emax [11] | combination Emax [12] | combination Emax [13] | combination Emax [14] | combination Emax [15] | combination Emax [16] | combination Emax [17] | combination Emax [18]
CN(CCO)CC[C@H](CSc1ccccc1)Nc1ccc(S(=O)(=O)NC(=O)c2ccc(N3CCC([C@@H](O)c4ccccc4-c4ccc(Cl)cc4)CC3)cc2)cc1S(=O)(=O)C(F)(F)F [AZD4320] + C[C@@H](Nc1cc(F)cc(F)c1)c1cc(C(=O)N(C)C)cc2c(=O)cc(N3CCOCC3)oc12 [AZD8186] (first compound max 1 µM, 7x7, partner max 3 µM) | 0.672 | 0.515 | 0.417 | 0.312 | 0.888 | 0.974 | 0.231 | 0.584 | 0.703 | 0.532 | 0.849 | 0.374 | 0.837 | 0.999 | 0.551 | 0.528 | 1 | 0.306 | 0.735 | 0.246
CC(=O)c1c(C)c2cnc(Nc3ccc(N4CCNCC4)cn3)nc2n(C2CCCC2)c1=O [Palbociclib] + Cn1cnc2c(F)c(Nc3ccc(Br)cc3Cl)c(C(=O)NOCCO)cc21 [Selumetinib] (first compound max 10 µM, 7x7, partner max 10 µM) | 0.154 | 0.349 | 0.187 | 0.201 | 0.92 | 0.906 | 0.627 | 0.231 | 0.649 | 0.223 | 0.224 | 0.246 | 0.18 | 0.459 | 0.0425 | 0.168 | 0.624 | 0.105 | 0.745 | 0.307
Cc1nc(Nc2ncc(C(=O)Nc3c(C)cccc3Cl)s2)cc(N2CCN(CCO)CC2)n1 [Dasatinib] + CC(=O)Nc1cccc(-n2c(=O)n(C3CC3)c(=O)c3c(Nc4ccc(I)cc4F)n(C)c(=O)c(C)c32)c1 [Trametinib] (first compound max 2 µM, 7x7, partner max 1 µM) | 0.229 | 0.486 | 0.266 | 0.271 | 0.433 | 1 | 0.203 | 0.82 | 0.654 | 0.493 | 0.215 | 0.685 | 0.41 | 0.124 | 0.241 | 0.347 | 0.149 | 0.224 | 0.939 | 0.57
CC1(C)CCC(CN2CCN(c3ccc(C(=O)NS(=O)(=O)c4ccc(NCC5CCOCC5)c([N+](=O)[O-])c4)c(Oc4cnc5[nH]ccc5c4)c3)CC2)=C(c2ccc(Cl)cc2)C1 [Venetoclax] + C[C@@H]1COCCN1C2=NC(=NC(=C2)C3(CC3)[S@](=N)(=O)C)C4=C5C=CNC5=NC=C4 [AZD6738] (first compound max 1 µM, 7x7, partner max 10 µM) | 0.884 | 0.394 | 0.638 | 0.274 | 0.996 | 0.72 | 0.86 | 0.534 | 0.934 | 0.466 | 0.793 | 0.538 | 0.9 | 0.837 | 0.432 | 0.661 | 1 | 0.387 | 0.871 | 0.484
CC1(C)CCC(CN2CCN(c3ccc(C(=O)NS(=O)(=O)c4ccc(NCC5CCOCC5)c([N+](=O)[O-])c4)c(Oc4cnc5[nH]ccc5c4)c3)CC2)=C(c2ccc(Cl)cc2)C1 [Venetoclax] + C1CN(CCC1(C(=O)N[C@@H](CCO)C2=CC=C(C=C2)Cl)N)C3=NC=NC4=C3C=CN4 [Capivasertib] (first compound max 1 µM, 7x7, partner max 3 µM) | 0.474 | 0.0995 | 0.189 | 0.192 | 0.295 | 0.316 | 0.3 | 0.329 | 0.336 | 0.334 | 0.155 | 0.272 | 0.21 | 0.333 | 0.11 | 0.276 | 0.957 | 0.37 | 0.258 | 0.264
CN(C)CCCOc1ccc(-c2ccc3ncc4c(c3c2)n(C2CCOCC2)c(=O)n4C)cn1 [AZD0156] + O=C(c1cc(Cc2n[nH]c(=O)c3ccccc23)ccc1F)N1CCN(C(=O)C2CC2)CC1 [Olaparib] (first compound max 3 µM, partner max 3 µM) | 0.384 | 0.289 | 0.279 | 0.353 | 0.78 | 0.392 | 0.382 | 0.224 | 0.439 | 0.26 | 0.658 | 0.289 | 0.427 | 0.318 | 0.115 | 0.448 | 0.46 | 0.228 | 0.346 | 0.207
CC1(C)CCC(CN2CCN(c3ccc(C(=O)NS(=O)(=O)c4ccc(NCC5CCOCC5)c([N+](=O)[O-])c4)c(Oc4cnc5[nH]ccc5c4)c3)CC2)=C(c2ccc(Cl)cc2)C1 [Venetoclax] + Cc1cc2ncnn2cc1Nc1ncc2c(n1)n(C1CCOCC1)c(=O)n2C [AZD7648] (first compound max 1 µM, 7x7, partner max 10 µM) | 0.44 | 0.202 | 0.271 | 0.154 | 0.457 | 0.199 | 0.221 | 0.143 | 0.325 | 0.241 | 0.104 | 0.139 | 0.172 | 0.496 | 0.193 | 0.243 | 0.931 | 0.147 | 0.331 | 0.175
NC1(C(=O)N[C@@H](CCO)c2ccc(Cl)cc2)CCN(c2ncnc3[nH]ccc23)CC1 [Capivasertib] + C[C@@H]1COCCN1C2=NC(=NC(=C2)C3(CC3)[S@](=N)(=O)C)C4=C5C=CNC5=NC=C4 [AZD6738] (first compound max 10 µM, 7x7, partner max 10 µM) | 0.78 | 0.446 | 0.685 | 0.232 | 1 | 0.837 | 0.967 | 0.504 | 0.919 | 0.539 | 0.851 | 0.53 | 0.901 | 0.775 | 0.377 | 0.721 | 0.983 | 0.641 | 0.869 | 0.601
CN(CCO)CC[C@H](CSc1ccccc1)Nc1ccc(S(=O)(=O)NC(=O)c2ccc(N3CCC([C@@H](O)c4ccccc4-c4ccc(Cl)cc4)CC3)cc2)cc1S(=O)(=O)C(F)(F)F [AZD4320] + Cc1cc2ncnn2cc1Nc1ncc2c(n1)n(C1CCOCC1)c(=O)n2C [AZD7648] (first compound max 1 µM, 7x7, partner max 10 µM) | 0.459 | 0.156 | 0.268 | 0.246 | 0.315 | 0.318 | 0.299 | 0.177 | 0.45 | 0.214 | 0.619 | 0.121 | 0.152 | 0.596 | 0.786 | 0.175 | 1 | 0.124 | 0.226 | 0.125
Cn1cnc2c(F)c(Nc3ccc(Br)cc3Cl)c(C(=O)NOCCO)cc21 [Selumetinib] + C=CCn1c(=O)c2cnc(Nc3ccc(N4CCN(C)CC4)cc3)nc2n1-c1cccc(C(C)(C)O)n1 [AZD1775] (first compound max 10 µM, partner max 1 µM) | 0.819 | 0.396 | 0.429 | 0.231 | 1 | 0.932 | 0.855 | 0.271 | 0.638 | 0.406 | 0.433 | 0.268 | 0.844 | 0.72 | 0.362 | 0.345 | 0.996 | 0.163 | 0.718 | 0.288
CC1(C)CCC(CN2CCN(c3ccc(C(=O)NS(=O)(=O)c4ccc(NCC5CCOCC5)c([N+](=O)[O-])c4)c(Oc4cnc5[nH]ccc5c4)c3)CC2)=C(c2ccc(Cl)cc2)C1 [Venetoclax] + C=CCn1c(=O)c2cnc(Nc3ccc(N4CCN(C)CC4)cc3)nc2n1-c1cccc(C(C)(C)O)n1 [AZD1775] (first compound max 1 µM, partner max 1 µM) | 0.865 | 0.378 | 0.475 | 0.691 | 1 | 0.595 | 0.917 | 0.398 | 0.557 | 0.677 | 0.437 | 0.294 | 0.873 | 0.815 | 0.338 | 0.701 | 1 | 0.3 | 0.745 | 0.246
CN(CCO)CC[C@H](CSc1ccccc1)Nc1ccc(S(=O)(=O)NC(=O)c2ccc(N3CCC([C@@H](O)c4ccccc4-c4ccc(Cl)cc4)CC3)cc2)cc1S(=O)(=O)C(F)(F)F [AZD4320] + C[C@@H]1COCCN1C2=NC(=NC(=C2)C3(CC3)[S@](=N)(=O)C)C4=C5C=CNC5=NC=C4 [AZD6738] (first compound max 1 µM, 7x7, partner max 10 µM) | 0.918 | 0.621 | 0.865 | 0.372 | 1 | 0.993 | 0.932 | 0.502 | 0.978 | 0.381 | 1 | 0.7 | 0.972 | 0.956 | 0.718 | 0.637 | 1 | 0.559 | 0.937 | 0.514
